These results are taken from PubChem BioAssay AID179 (DTP/NCI, 2004).

The test concerns CEM cells HIV-1 protection, formazan growth assay. Put plainly: NCI AIDS Antiviral Assay. The settings on record: for IC50: measured here: growth of uninfected CEM cells. The essentials: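 Protection of CEM cells against HIV-1 measured as cell growth via soluble formazan read-out, with five concentrations tested on both infected and uninfected cells; failure to protect may reflect toxicity.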

Molecules are shown by their SMILES. Calls of active or inactive are those of the source.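 Rule for the calls: active = compounds giving half or more protection of infected cells from virus-caused growth loss, again on retest; inactive = the rest.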 Where a SMILES comes first, the peptide text is derived from it. The star is where a group is joined. X11 = Clc1c(Cl)c(Cl)c(O*)c(Cl)c1Cl; Boc = CC(C)(C)OC(=O)*; OBn = c1ccc(CO*)cc1; Bn = c1ccc(C*)cc1 Some results are limits rather than exact numbers.

As for `N#CNC1=NC(Cc2ccccc2)C(=O)N1CCc1c[nH]c2ccccc12` (centres undefined), the EC50 is above 200 µM and the IC50 came to 31.6 µM.

Take `COc1cccc(C2CC(C)=Nc3c(ccc4c3C(=O)c3ccccc3C4=O)N2)c1O` (centres undefined): the EC50 is above 9.12 µM and the IC50 is above 9.12 µM.

Turning to `O=c1cc(N2CCCC2)[nH]c(=O)n1Cc1ccccc1`, the result was inactive. Turning to `C[C@@]12C[C@@H](c3ccccc3O1)N1Cc3ccccc3CSC1=N2`, the EC50 was above 200 µM and the IC50 is 49 µM. `COc1c(OC)c(C2(O)C(=O)N(C)c3ccccc32)c2c(c1C1(O)C(=O)N(C)c3ccccc31)OCO2` (centres undefined): the EC50 was above 200 µM and the IC50 was above 200 µM. On to `CCOc1cc2cnc3c4cc(OC)c(OC)cc4ccc3c2cc1OC`, for which the EC50 is above 70.8 µM and the IC50 is 34.7 µM. As for `O=c1cc2n(c(=O)[nH]1)C1OC(C(O)C1O)[C@H]2CCO` (some centres undefined), the outcome was inactive. For `O=C(O)/C=C/c1ccc(OS(=O)(=O)O)cc1`, the EC50 was above 200 µM and the 50% inhibitory concentration (IC50) was above 200 µM. For the compound `C/C(=N/OCCC(=O)O)C1CC1`, the EC50 is above 1450 µM and the IC50 is above 1450 µM. In the case of `COc1ccc(N=C2C(=Nc3ccc(OC)cc3)N(c3ccc(N(C)C)cc3)C(=S)N2c2ccc(OC)cc2)cc1`, the EC50 was above 20 µM and the half-maximal inhibitory concentration (IC50) was found to be 0.692 µM.

`NC(N)=Nc1ccccc1SSc1ccccc1N=C(N)N`: the EC50 was 8.13 µM and the IC50 was determined as 52.5 µM.

Turning to `O=C(Nc1ccccc1)OCCN=C1c2ccccc2C(Br)C(Br)c2ccccc21` (centres undefined), the EC50 was above 200 µM and the IC50 was determined as 0.794 µM. For `COC1CC2CCC(C)[C@](O)(O2)C(=O)C(=O)N2CCCCC2C(=O)OC(C(C)CC2CCC(O)C(OC)C2)CC(=O)C(C)C=C(C)C(OC(=O)CN(C)C)C(OC)C(=O)C(C)CC(C)/C=C/C=C/C=C\1C` (some centres undefined), in that order: above 200 µM and 7.24 µM. As for `COc1ccc(C23c4ccc(OC)cc4CC2(c2ccc([N+](=O)[O-])cc2)Cc2cc(OC)ccc23)cc1` (centres undefined), the EC50 was above 200 µM and the half-maximal inhibitory concentration (IC50) is above 200 µM. `CCOC(=O)/C(CCCC#N)=N/O`: the EC50 is above 200 µM and the half-inhibitory concentration (IC50) was above 200 µM.

With `CN(C)c1ccc(/C=N/NC2=N/C(=C\c3ccco3)C(=O)N2)cc1`, the EC50 is above 100 µM and the IC50 is above 100 µM.

`N#CCCC[Si]12OCCN(CCO1)CCO2`: the result was inactive. As to `COC1OC(OC)C2C(c3c(C)cc(C)cc3C)=NOC12` (centres undefined), the EC50 is above 234 µM and the IC50 is above 234 µM.

With `CCC(c1ccc(N(C)C)cc1)C1NC(=S)NC1=O` (centres undefined), the EC50 was above 200 µM and the IC50 was 25.7 µM. Taken in the same sequence, the figures for `CC(=O)OC(C(=O)C(O)C(C)C)C(C)C` (centres undefined) were above 832 µM and above 832 µM. For `CCc1ccccc1C(C(=O)NC1CN2CCC1CC2)c1ccsc1` (centres undefined), in that order: above 200 µM and 61.7 µM. Take `CC1CN(c2ccc(Cl)cc2)CC(C)OC(=O)O1` (centres undefined): the result was inactive.

Turning to `COC(=O)c1ccc(C)cc1C1CN=NC12Cc1cccc(C)c1C2=O` (centres undefined), the EC50 is above 200 µM and the IC50 is above 200 µM. On to `O=C1[C@H]2ON(c3ccccc3)C(c3ccco3)[C@H]2C(=O)N1c1ccc(Cc2ccc(N3C(=O)[C@@H]4ON(c5ccccc5)C(c5ccco5)[C@@H]4C3=O)cc2)cc1` (some centres undefined), for which the EC50 is above 7.08 µM and the IC50 is above 7.08 µM.

`O=C1C(=O)c2ccccc2C(O)=C1CCCc1ccc(Oc2ccccc2)cc1`: the result was inactive. On to `O=C(COc1ccc(Br)cc1Br)N1N=C(c2ccc([N+](=O)[O-])o2)CC1(O)c1ccccc1` (centres undefined), for which the EC50 was above 6.61 µM and the IC50 was above 6.61 µM.

Take `Cc1nn2c(nnn2CCO)c1-c1ccccc1`: the EC50 is above 1020 µM and the IC50 was 407 µM. As for `CCc1c(Sc2ccccn2)n(COCc2ccccc2)c(=O)[nH]c1=O`, the EC50 is 91.2 µM and the IC50 was 339 µM. For the compound `CCOC(=O)c1ccc(NC(=O)Nc2ncc(Cl)cc2Cl)cc1`, the EC50 is above 200 µM and the IC50 is above 200 µM. For the compound `COc1ccc(/C=C2\CCC(C)C3C2=NN(c2ccccc2)C3c2ccc(OC)c(OC)c2)cc1OC` (centres undefined), the EC50 is above 200 µM and the IC50 came to 5.01 µM. For the compound `COc1ccc([C@H]2CC(=O)N3CCCC3N2)cc1` (some centres undefined), the EC50 is above 200 µM and the IC50 was above 200 µM. In the case of `CCOC(=O)C1Cc2c(ccc(OC)c2OC)C(=O)C1N` (centres undefined), the outcome was inactive. With `Cc1cccc2c1c(=O)c1c(O)cc(O)cc1n2C`, the EC50 was above 200 µM and the IC50 was above 200 µM.

As for `CN(C)CCNc1ccc2c(=O)n(CCN(C)C)c(=O)n3c4ccc(O)cc4c(=O)c1c23`, the EC50 was above 0.2 µM and the concentration for half-maximal inhibition (IC50) turned out to be 0.0107 µM. For `C[C@H]1CC[C@@]2(OC1)O[C@H]1C[C@H]3[C@@H]4CC[C@@H]5C[C@@H](OC6OC(CO)C(O)C(O)C6OC6OC(CO)C(O)C(O)C6O)CC[C@]5(C)[C@H]4CC[C@]3(C)[C@H]1[C@@H]2C` (some centres undefined), in that order: above 200 µM and 5.25 µM.

On to `COc1c2c(cc3c1[C@@H]1Oc4c(ccc(O)c4CC=C(C)C)[C@@H]1CO3)OC(C)(C)C=C2`, for which the EC50 was 2.24 µM and the IC50 stood at 23.4 µM. As to `COc1ccc(/C=C/C(=O)c2cc(Cl)cc(Cl)c2O)cc1OC`, the EC50 is above 200 µM and the IC50 came out at 1.05 µM. For the compound `O=C1N(c2ccccc2)SN2C3C=CC(C4CC43)N12` (centres undefined), the EC50 is above 182 µM and the 50% inhibitory concentration (IC50) was above 182 µM. With `S=c1cc(S)c(=S)[nH][nH]1`, the EC50 is above 63.1 µM and the IC50 was 19.5 µM. Regarding `Cc1cc(-c2ccc(Cl)cc2)c(C#N)c(=S)n1C1OC(CO)C(O)C(O)C1O` (centres undefined), the EC50 is above 200 µM and the IC50 is above 200 µM. Consider `CCOC(=O)/C(=C\c1ccco1)C(C)=O`, for which the EC50 is above 240 µM and the IC50 is above 240 µM. `COc1cc(O)c2c(c1C)C(C)(O)c1c(C)coc1C2=O` (centres undefined): the outcome was inactive. As to `c1ccc2c(c1)SC1=C(SC(=C3SC4=C(S3)Sc3ccccc3S4)S1)S2`, the EC50 was above 100 µM and the IC50 is above 100 µM.

Turning to `C=CC1(C)OC2(CCN(C(=O)OCC)CC2)OC1C` (centres undefined), the EC50 is above 200 µM and the half-maximal inhibitory concentration (IC50) was found to be 123 µM. Take `O=C(Cn1c(=O)ccn(C2OC(CO)C(O)C2F)c1=O)c1ccc(F)cc1` (centres undefined): the EC50 was above 200 µM and the half-maximal inhibitory concentration (IC50) is above 200 µM. On to `O=S(O)CCCCSSCCCCSSCCCCS(=O)O`, for which the result was inactive. Turning to `O=[N+]([O-])c1ccc([N+](=O)[O-])c(Cl)c1`, the EC50 was above 200 µM and the IC50 was determined as 3.16 µM. As to `O=S(OC12CC3CC(CC(C3)C1)C2)c1cc(Cl)cc(Cl)c1OCc1ccccc1` (centres undefined), the outcome was inactive.

On to `Cc1ccc(S(=O)(=O)NCCCSCCO)cc1`, for which the EC50 was above 871 µM and the IC50 was found to be 5.75 µM. Regarding `CC/C(=N\NS(=O)(=O)c1ccccc1)c1ccccc1`, the result was inactive. On to `CCOP(=O)(OCC)/C(C#N)=C/c1ccc[nH]1`, for which the EC50 was above 977 µM and the IC50 is 575 µM.

As for `O=C1C(=O)C(CN2CCOCC2)=C(N2CCOCC2)C(N2CCOCC2)=C1CN1CCOCC1`, the EC50 was above 200 µM and the IC50 was 77.6 µM.

For the compound `O=C(/C=C/c1cc2ccccc2o1)N1CCN(c2ccccn2)CC1`, the EC50 was above 200 µM and the IC50 was determined as 191 µM. On to `COC(=O)C(Cc1nc2ccc(Cl)cc2[nH]c1=O)/C(=N/NC(N)=O)C(=O)Nc1ccc(Cl)cc1` (centres undefined), for which the EC50 is above 70.8 µM and the IC50 was above 70.8 µM. For the compound `O=C1Nc2ccc([N+](=O)[O-])c3c([N+](=O)[O-])ccc1c23`, the EC50 is above 200 µM and the IC50 amounted to 1.02 µM. On to `C[N+](C)(N)c1nc(N)c(C#N)c(C#N)c1C#N`, for which the EC50 is above 200 µM and the IC50 turned out to be 33.1 µM.

With `CC(C)CC(NC(=O)C(CCC(=O)OCc1ccccc1)NC(=O)OC(C)(C)C)C(=O)NC(COCc1ccccc1)C(=O)NC(Cc1ccccc1)C(=O)Oc1c(Cl)c(Cl)c(Cl)c(Cl)c1Cl` (centres undefined) (Boc-E(OBn)LS(Bn)F-X11; configuration not given here), the EC50 is above 200 µM and the IC50 was 38.9 µM. `CCOC(=O)CC/C(C)=N\n1c(Cc2ccc(Cl)cc2)n[nH]c1=O`: the result was inactive. With `CN1C(=O)CN2C(Cl)(Cl)C2(c2ccccc2)c2cc(Cl)ccc21` (centres undefined), the EC50 was above 200 µM and the IC50 was 120 µM. For the compound `COc1cc(Nc2nc3c(N)cc(C(F)(F)F)cc3nc2-c2ccccc2)cc(OC)c1OC`, the EC50 was above 15.1 µM and the IC50 was above 15.1 µM. Regarding `O=c1c(SCc2ccccc2F)c(SCc2ccccc2F)cnn1-c1ccccc1`, the EC50 is above 11.5 µM and the half-inhibitory concentration (IC50) was 4.9 µM. Taken in the same sequence, the figures for `CCOP(=O)(OCC)C(Cc1c[nH]c2ccccc12)C(=O)O` (centres undefined) were above 200 µM and above 200 µM.

Turning to `O=C1c2sc(-c3ccc(Cl)cc3)cc2-n2cccc21`, the EC50 was above 151 µM and the IC50 is above 151 µM. Turning to `CCN(CC)C(=O)N1CN(c2ccccc2)C2(CCN(CCCSc3ccc(F)cc3)CC2)C1=O`, the EC50 was above 200 µM and the 50% inhibitory concentration (IC50) was found to be 9.77 µM. As for `CCCCCC/C=C/CCCCCCCc1cccc(O)c1C(=O)O`, the EC50 is above 102 µM and the concentration for half-maximal inhibition (IC50) was determined as 63.1 µM. In the case of `CS(=O)(=O)NC12CCC(c3ccccc31)c1ccccc12`, the EC50 is above 200 µM and the IC50 was above 200 µM.

On to `C[N+]1(C)C[C@@H](O)C[C@@H]1C(=O)[O-]`, for which the EC50 is above 1580 µM and the IC50 was above 1580 µM. For `CC[S+](C)c1ccc(-c2c3nc(c(-c4ccc([S+](C)CC)cc4)c4ccc([nH]4)c(-c4ccc([S+](C)CC)cc4)c4nc(c(-c5ccc([S+](C)CC)cc5)c5ccc2[nH]5)C=C4)C=C3)cc1` (centres undefined), the EC50 was 4.79 µM and the IC50 was found to be 13.2 µM. As to `O=S1(=O)CCC2=CC(C(F)(F)F)=CC(C(F)(F)F)=CN21`, the EC50 was above 81.3 µM and the IC50 was 0.38 µM. Turning to `CC(C)(C)NN=C1C(C)(C)C(=NNC(C)(C)C)C1(C)C`, the EC50 is above 316 µM and the IC50 is above 316 µM.
